Data as given in PubChem BioAssay (NCI).
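Test compounds were applied to cells in 96-well plates for 48 hours at 5 doses. The concentration for full growth arrest is given as TGI.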

What was measured:
Assay in all cases: inhibition of tumour cell growth, NCI panel, 48 h
SNB-75 CNS = tested on: SNB-75 CNS
BT-549 breast = tested on: BT-549 breast
ACHN renal = tested on: ACHN renal
HCT-15 colon = tested on: HCT-15 colon
OVCAR-4 ovarian = tested on: OVCAR-4 ovarian
COLO 205 colon = tested on: COLO 205 colon
OVCAR-3 ovarian = tested on: OVCAR-3 ovarian
RXF 393 renal = tested on: RXF 393 renal
HS 578T breast = tested on: HS 578T breast
SK-MEL-5 melanoma = tested on: SK-MEL-5 melanoma
M14 melanoma = tested on: M14 melanoma
MCF7 breast = tested on: MCF7 breast
A498 renal = tested on: A498 renal
SN12C renal = tested on: SN12C renal
UACC-62 melanoma = tested on: UACC-62 melanoma
TK-10 renal = tested on: TK-10 renal
SR leukemia = tested on: SR leukemia
SNB-19 CNS = tested on: SNB-19 CNS
LOX IMVI melanoma = tested on: LOX IMVI melanoma
A549 NSCLC = tested on: A549 NSCLC
HL-60(TB) leukemia = tested on: HL-60(TB) leukemia
OVCAR-8 ovarian = tested on: OVCAR-8 ovarian
KM12 colon = tested on: KM12 colon
IGROV1 ovarian = tested on: IGROV1 ovarian
CAKI-1 renal = tested on: CAKI-1 renal
MDA-MB-435 = tested on: MDA-MB-435
MDA-N = tested on: MDA-N
HT29 colon = tested on: HT29 colon
NCI/ADR-RES ovarian = tested on: NCI/ADR-RES ovarian
786-0 renal = tested on: 786-0 renal
PC-3 prostate = tested on: PC-3 prostate
OVCAR-5 ovarian = tested on: OVCAR-5 ovarian
K-562 leukemia = tested on: K-562 leukemia
CCRF-CEM leukemia = tested on: CCRF-CEM leukemia
NCI-H226 lung = tested on: NCI-H226 lung
NCI-H522 lung = tested on: NCI-H522 lung
UACC-257 melanoma = tested on: UACC-257 melanoma
RPMI-8226 leukemia = tested on: RPMI-8226 leukemia
SF-268 CNS = tested on: SF-268 CNS
NCI-H23 lung = tested on: NCI-H23 lung
SF-295 CNS = tested on: SF-295 CNS
SW-620 colon = tested on: SW-620 colon
T-47D breast = tested on: T-47D breast
U251 CNS = tested on: U251 CNS
HCT-116 colon = tested on: HCT-116 colon
DU-145 prostate = tested on: DU-145 prostate
NCI-H460 lung = tested on: NCI-H460 lung
SK-MEL-2 melanoma = tested on: SK-MEL-2 melanoma
SF-539 CNS = tested on: SF-539 CNS
EKVX NSCLC = tested on: EKVX NSCLC
HOP-92 NSCLC = tested on: HOP-92 NSCLC
SK-OV-3 ovarian = tested on: SK-OV-3 ovarian
MOLT-4 leukemia = tested on: MOLT-4 leukemia
MDA-MB-231 breast = tested on: MDA-MB-231 breast
UO-31 renal = tested on: UO-31 renal
MALME-3M melanoma = tested on: MALME-3M melanoma
SK-MEL-28 melanoma = tested on: SK-MEL-28 melanoma
HCC-2998 colon = tested on: HCC-2998 colon
HOP-62 NSCLC = tested on: HOP-62 NSCLC

Structure (SMILES): CSc1ncc2c(n1)-c1ccccc1OC2N1CCCCC1 (configuration not stated)
- TGI (SNB-75 CNS): > 100 µM
- TGI (BT-549 breast): 86.2 µM
- TGI (ACHN renal): > 100 µM
- TGI (HCT-15 colon): 84.5 µM
- TGI (OVCAR-4 ovarian): > 100 µM
- TGI (COLO 205 colon): > 100 µM
- TGI (OVCAR-3 ovarian): > 100 µM
- TGI (RXF 393 renal): > 100 µM
- TGI (HS 578T breast): 99.2 µM
- TGI (SK-MEL-5 melanoma): 45.8 µM
- TGI (M14 melanoma): > 100 µM
- TGI (MCF7 breast): 87.6 µM
- TGI (A498 renal): 49.9 µM
- TGI (SN12C renal): > 100 µM
- TGI (UACC-62 melanoma): > 100 µM
- TGI (TK-10 renal): 73.2 µM
- TGI (SR leukemia): 53.2 µM
- TGI (SNB-19 CNS): > 100 µM
- TGI (LOX IMVI melanoma): 46.7 µM
- TGI (A549 NSCLC): > 100 µM
- TGI (HL-60(TB) leukemia): 49 µM
- TGI (OVCAR-8 ovarian): > 100 µM
- TGI (KM12 colon): > 100 µM
- TGI (IGROV1 ovarian): > 100 µM
- TGI (CAKI-1 renal): 66.3 µM
- TGI (MDA-MB-435): 87.2 µM
- TGI (MDA-N): > 100 µM
- TGI (HT29 colon): > 100 µM
- TGI (NCI/ADR-RES ovarian): > 100 µM
- TGI (786-0 renal): > 100 µM
- TGI (PC-3 prostate): > 100 µM
- TGI (OVCAR-5 ovarian): > 100 µM
- TGI (K-562 leukemia): > 100 µM
- TGI (CCRF-CEM leukemia): 49.8 µM
- TGI (NCI-H226 lung): > 100 µM
- TGI (NCI-H522 lung): 42.3 µM
- TGI (UACC-257 melanoma): > 100 µM
- TGI (RPMI-8226 leukemia): 65.9 µM
- TGI (SF-268 CNS): > 100 µM
- TGI (NCI-H23 lung): > 100 µM
- TGI (SF-295 CNS): > 100 µM
- TGI (SW-620 colon): > 100 µM
- TGI (T-47D breast): 68.2 µM
- TGI (U251 CNS): > 100 µM
- TGI (HCT-116 colon): > 100 µM
- TGI (DU-145 prostate): > 100 µM
- TGI (NCI-H460 lung): > 100 µM
- TGI (SK-MEL-2 melanoma): 96.6 µM
- TGI (SF-539 CNS): > 100 µM
- TGI (EKVX NSCLC): > 100 µM
- TGI (HOP-92 NSCLC): 84.2 µM
- TGI (SK-OV-3 ovarian): > 100 µM
- TGI (MOLT-4 leukemia): 58 µM
- TGI (MDA-MB-231 breast): > 100 µM
- TGI (UO-31 renal): > 100 µM

Structure (SMILES): O=[N+]([O-])c1ccccc1S(=O)(=O)c1cc(O)cc2c1NCCC2
- TGI (SNB-75 CNS): 33.5 µM
- TGI (BT-549 breast): 26.3 µM
- TGI (ACHN renal): 27.4 µM
- TGI (HCT-15 colon): 44.4 µM
- TGI (OVCAR-4 ovarian): 29.3 µM
- TGI (COLO 205 colon): 34.3 µM
- TGI (OVCAR-3 ovarian): 18.1 µM
- TGI (RXF 393 renal): 31.7 µM
- TGI (HS 578T breast): > 86.7 µM
- TGI (SK-MEL-5 melanoma): 27.1 µM
- TGI (M14 melanoma): 30.8 µM
- TGI (MCF7 breast): 29.8 µM
- TGI (A498 renal): 18.4 µM
- TGI (MALME-3M melanoma): 37.9 µM
- TGI (SN12C renal): 41.5 µM
- TGI (UACC-62 melanoma): 28.9 µM
- TGI (TK-10 renal): 36.7 µM
- TGI (SR leukemia): 5.37 µM
- TGI (SNB-19 CNS): 65.6 µM
- TGI (LOX IMVI melanoma): 38.4 µM
- TGI (SK-MEL-28 melanoma): 33.9 µM
- TGI (A549 NSCLC): > 85.9 µM
- TGI (HCC-2998 colon): 51.1 µM
- TGI (HL-60(TB) leukemia): > 23 µM
- TGI (OVCAR-8 ovarian): 41.6 µM
- TGI (KM12 colon): 34.3 µM
- TGI (IGROV1 ovarian): 30.8 µM
- TGI (CAKI-1 renal): 63.3 µM
- TGI (MDA-MB-435): 41.4 µM
- TGI (MDA-N): 38.8 µM
- TGI (HT29 colon): 40.9 µM
- TGI (NCI/ADR-RES ovarian): > 79.3 µM
- TGI (786-0 renal): 25.9 µM
- TGI (PC-3 prostate): 28.7 µM
- TGI (OVCAR-5 ovarian): 40 µM
- TGI (K-562 leukemia): 7.54 µM
- TGI (CCRF-CEM leukemia): 5.6 µM
- TGI (NCI-H226 lung): 62.8 µM
- TGI (NCI-H522 lung): 24.5 µM
- TGI (UACC-257 melanoma): 26.8 µM
- TGI (SF-268 CNS): 42.6 µM
- TGI (NCI-H23 lung): 49 µM
- TGI (SF-295 CNS): > 59.1 µM
- TGI (HOP-62 NSCLC): 40.3 µM
- TGI (SW-620 colon): 32.6 µM
- TGI (T-47D breast): 24.1 µM
- TGI (U251 CNS): 40.1 µM
- TGI (HCT-116 colon): 20.9 µM
- TGI (DU-145 prostate): 35.7 µM
- TGI (NCI-H460 lung): 53 µM
- TGI (SK-MEL-2 melanoma): 51.7 µM
- TGI (SF-539 CNS): 34.8 µM
- TGI (EKVX NSCLC): 30.7 µM
- TGI (HOP-92 NSCLC): 16.8 µM
- TGI (SK-OV-3 ovarian): > 31.6 µM
- TGI (MOLT-4 leukemia): 13.6 µM
- TGI (MDA-MB-231 breast): 32.4 µM
- TGI (UO-31 renal): 29.8 µM

Structure (SMILES): C/C(=N\O)c1ccc(Nc2nc3ccccc3c3occc23)cc1
- TGI (BT-549 breast): 53.1 µM
- TGI (ACHN renal): 47.7 µM
- TGI (HCT-15 colon): 7.77 µM
- TGI (COLO 205 colon): 20 µM
- TGI (OVCAR-3 ovarian): > 100 µM
- TGI (HS 578T breast): 53.3 µM
- TGI (SK-MEL-5 melanoma): 35.1 µM
- TGI (M14 melanoma): 22.4 µM
- TGI (MCF7 breast): 14.8 µM
- TGI (A498 renal): 37.8 µM
- TGI (MALME-3M melanoma): 61.3 µM
- TGI (SN12C renal): 56.3 µM
- TGI (UACC-62 melanoma): 61 µM
- TGI (TK-10 renal): 7.63 µM
- TGI (SR leukemia): 5.07 µM
- TGI (SNB-19 CNS): > 100 µM
- TGI (LOX IMVI melanoma): 32.8 µM
- TGI (A549 NSCLC): 34.8 µM
- TGI (HCC-2998 colon): 20.8 µM
- TGI (HL-60(TB) leukemia): 8.49 µM
- TGI (OVCAR-8 ovarian): 54.7 µM
- TGI (KM12 colon): 20.8 µM
- TGI (IGROV1 ovarian): 29.6 µM
- TGI (CAKI-1 renal): 7.28 µM
- TGI (MDA-MB-435): 44.9 µM
- TGI (MDA-N): 96.6 µM
- TGI (HT29 colon): 2.68 µM
- TGI (NCI/ADR-RES ovarian): 47.8 µM
- TGI (786-0 renal): 9.93 µM
- TGI (PC-3 prostate): 50.7 µM
- TGI (OVCAR-5 ovarian): > 100 µM
- TGI (K-562 leukemia): 6.04 µM
- TGI (CCRF-CEM leukemia): 27.7 µM
- TGI (NCI-H226 lung): 10.8 µM
- TGI (NCI-H522 lung): 9.47 µM
- TGI (UACC-257 melanoma): 48.2 µM
- TGI (RPMI-8226 leukemia): 6.62 µM
- TGI (SF-268 CNS): 39.9 µM
- TGI (NCI-H23 lung): 62.4 µM
- TGI (SF-295 CNS): 11.1 µM
- TGI (HOP-62 NSCLC): 27 µM
- TGI (T-47D breast): 32.7 µM
- TGI (U251 CNS): > 100 µM
- TGI (HCT-116 colon): 18 µM
- TGI (DU-145 prostate): 35.6 µM
- TGI (NCI-H460 lung): 4.34 µM
- TGI (SK-MEL-2 melanoma): 51.5 µM
- TGI (SF-539 CNS): 37.1 µM
- TGI (EKVX NSCLC): > 100 µM
- TGI (HOP-92 NSCLC): 52.4 µM
- TGI (SK-OV-3 ovarian): 57.4 µM
- TGI (MOLT-4 leukemia): 13.6 µM
- TGI (MDA-MB-231 breast): 8.22 µM
- TGI (UO-31 renal): > 100 µM
